Experimental data as given in US20230123334A1, “AMINO LIPID COMPOUND, PREPARATION METHOD THEREFOR, AND APPLICATION THEREOF” (SHENZHEN SHENXIN BIOTECHNOLOGY CO., LTD., priority 2020, published 2023).

System: HEK293 cells
Experiment: Preliminary screening as DNA vectors, GFP transfection of HEK293 cells
Type: cell-based
Settings: amino lipid/DOPE liposome with 75 ng plasmid DNA (psin-EGFP-IRES-Puro); number of GFP-expressing cells divided by total nuclei (Hoechst)
Outline: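 Lipid + DOPE liposomes (NaOAc, pH 5.6) complexed w/ 75 ng psin-EGFP-IRES-Puro, 30 min RT; added to 3-5×10^4 HEK293/well, 37° C. Hoechst 0.2 μg/mL at 20-24 h, imaged after further 20-24 h. Efficiency = GFP+ cells / total nuclei.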

For `CCCCCCCCCCCCNc1nc(NCCCN2CCN(C)CC2)nc(SCCCCCCC)n1` [S7N12 D9], the “Absolute DNA transfection efficiency in HEK293 cells” value (from here on “Absolute DNA transfection efficiency”) was 46.4%.
`CCCCCCCCCCCSc1nc(NCCCN2CCN(C)CC2)nc(SCCCCCCCC)n1` [S8S11 D9] was tested, and the “Absolute DNA transfection efficiency” value was 12.8%.
In the case of `CCCCCCCCCCCNc1nc(NCCN(CC)CC)nc(SCCCCCCCC)n1` [S8N11 D7], the “Absolute DNA transfection efficiency” value is reported as 24.6%.
`CCCCCCCCCCCCNc1nc(NCCCN(C)C)nc(SCCCCCCCCCCC)n1` [S11N12 D6] was tested, and the “Absolute DNA transfection efficiency” value was 18.8%.
For `CCCCCCCCCCCCCCCSc1nc(NCCCCCCCC)nc(NCCN(CC)CC)n1` [S15N8 D7], the “Absolute DNA transfection efficiency” value was 6.7%.
`CCCCCCCCCCCCCCSc1nc(NCCCCCCC)nc(NCCN(CC)CC)n1` [S14N7 D7] was tested, and the “Absolute DNA transfection efficiency” value was 10.5%.
For `CCCCCCCCCCCCCCCCNc1nc(NCCCN(C)C)nc(SCCCCCCCCCCCC)n1` [S12N16 D6], the “Absolute DNA transfection efficiency” value was 2.1%.
`CCCCCCCCCSc1nc(NCCCN(C)C)nc(SCCCCCCCC)n1` [S8S9 D6] was tested, and the “Absolute DNA transfection efficiency” value was 6.3%.
With `CCCCCCCCCNc1nc(NCCN(C)C)nc(SCCCCCC)n1` [S6N9 D1] the “Absolute DNA transfection efficiency” value was 0.1%.
`CCCCCCCCCCCCSc1nc(NCCCCCCCC)nc(NCCN2CCN(C)CC2)n1` [S12N8 D5] was tested, and the “Absolute DNA transfection efficiency” value was 13.8%.
With `CCCCCCCCCCCCCCCNc1nc(NCCN2CCCC2)nc(SCCCCCC)n1` [S6N15 D3] the “Absolute DNA transfection efficiency” value was 15.9%.
In the case of `CCCCCCCCCCCCCCCCNc1nc(NCCCN2CCN(C)CC2)nc(SCCCCCC)n1` [S6N16 D9], the “Absolute DNA transfection efficiency” value is reported as 20.6%.
In the case of `CCCCCCCCCCCCCCCSc1nc(NCCCCCCCC)nc(NCCN(C)C)n1` [S15N8 D1], the “Absolute DNA transfection efficiency” value is reported as 8.9%.
`CCCCCCCCCCCCCCCCCCNc1nc(NCCCN2CCN(C)CC2)nc(SCCCCCCCCCCCCCCCC)n1` [S16N18 D9] was tested, and the “Absolute DNA transfection efficiency” value was 0.0%.
For `CCCCCCCCCCCCCNc1nc(NCCN(CC)CC)nc(SCCCCCCCCC)n1` [S9N13 D7], the “Absolute DNA transfection efficiency” value was 6.5%.
With `CCCCCCCCCCCCCCCNc1nc(NCC2CCN(C)CC2)nc(SCCCCCCCCCC)n1` [S10N15 D10] the “Absolute DNA transfection efficiency” value was 6.9%.
`CCCCCCCCCCCCCCCCCCSc1nc(NCCCCCC)nc(NCCN(CC)CC)n1` [S18N6 D7] was tested, and the “Absolute DNA transfection efficiency” value was 10.4%.
For `CCCCCCCCCCCCCCCCCCNc1nc(NCC2CCN(C)CC2)nc(SCCCCCCCCCCCCCCC)n1` [S15N18 D10], the “Absolute DNA transfection efficiency” value was 1.2%.
`CCCCCCSc1nc(NCCN2CCOCC2)nc(SCCCCCC)n1` [S6S6 D2] was tested, and the “Absolute DNA transfection efficiency” value was 0.4%.
`CCCCCCCCCCCCN(CCCCCCCCCCCC)c1nc(NCCN2CCOCC2)nc(SCCCCCC)n1` [S6^2N12 D2] was tested, and the “Absolute DNA transfection efficiency” value was 0.0%.
For `CCCCCCCCCCCCCCCCCCNc1nc(NCCN2CCCCC2)nc(SCCCCCCC)n1` [S7N18 D4], the “Absolute DNA transfection efficiency” value was 3.2%.
In the case of `CCCCCCCCCCCCCCCCCCNc1nc(NCC2CCN(C)CC2)nc(SCCCCCCCCCCCC)n1` [S12N18 D10], the “Absolute DNA transfection efficiency” value is reported as 3.7%.
With `CCCCCCCCCCCCCCCCCCNc1nc(NCCN2CCN(C)CC2)nc(SCCCCCCCCC)n1` [S9N18 D5] the “Absolute DNA transfection efficiency” value was 22.9%.
In the case of `CCCCCCCCCCCNc1nc(NCCN(CC)CC)nc(SCCCCCC)n1` [S6N11 D7], the “Absolute DNA transfection efficiency” value is reported as 2.2%.
`CCCCCCCCCCCCCCCNc1nc(NCCN(C)C)nc(SCCCCCCCC)n1` [S8N15 D1] was tested, and the “Absolute DNA transfection efficiency” value was 8.0%.
With `CCCCCCCCCCCCCCCNc1nc(NCC2CCN(C)CC2)nc(SCCCCCCCC)n1` [S8N15 D10] the “Absolute DNA transfection efficiency” value was 22.6%.
For `CCCCCCCCCCCCN(CCCCCCCCCCCC)c1nc(NCCCN2CCN(C)CC2)nc(SCCCCCCCCCCC)n1` [S11^2N12 D9], the “Absolute DNA transfection efficiency” value was 0.0%.
In the case of `CCCCCCCCCCCCCCCCSc1nc(NCCCCCCCCCCCCC)nc(NCCCN2CCOCC2)n1` [S16N13 D8], the “Absolute DNA transfection efficiency” value is reported as 0.2%.
`CCCCCCCCCCSc1nc(NCCN2CCN(C)CC2)nc(SCCCCCC)n1` [S6S10 D5] was tested, and the “Absolute DNA transfection efficiency” value was 12.4%.
`CCCCCCCCSc1nc(NCCCCCC)nc(NCCN2CCN(C)CC2)n1` [S8N6 D5] was tested, and the “Absolute DNA transfection efficiency” value was 5.0%.
For `CCCCCCCCCCCCCCCSc1nc(NCCCCCCCCCCC)nc(NCCCN(C)C)n1` [S15N11 D6], the “Absolute DNA transfection efficiency” value was 12.9%.
In the case of `CCCCCCCCCCCCSc1nc(NCCN2CCCCC2)nc(SCCCCCCCC)n1` [S8S12 D4], the “Absolute DNA transfection efficiency” value is reported as 10.8%.
In the case of `CCCCCCCCCCCCCCCCCCNc1nc(NCCN(C)C)nc(SCCCCCCC)n1` [S7N18 D1], the “Absolute DNA transfection efficiency” value is reported as 10.6%.
In the case of `CCCCCCCCCCCCCCCCNc1nc(NCCN2CCCC2)nc(SCCCCCCCC)n1` [S8N16 D3], the “Absolute DNA transfection efficiency” value is reported as 3.3%.
`CCCCCCSc1nc(NCCN(CC)CC)nc(SCCCCCC)n1` [S6S6 D7] was tested, and the “Absolute DNA transfection efficiency” value was 23.0%.
For `CCCCCCCCCCCCCCCCCCNc1nc(NCCN(CC)CC)nc(SCCCCCCCCCC)n1` [S10N18 D7], the “Absolute DNA transfection efficiency” value was 4.0%.
In the case of `CCCCCCCCCCCCCCCCSc1nc(NCCCCCC)nc(NCC2CCN(C)CC2)n1` [S16N6 D10], the “Absolute DNA transfection efficiency” value is reported as 14.5%.
For `CCCCCCCCCCCCCNc1nc(NCCN2CCCC2)nc(SCCCCCCCCCC)n1` [S10N13 D3], the “Absolute DNA transfection efficiency” value was 7.7%.
For `CCCCCCCCCNc1nc(NCCN2CCCCC2)nc(SCCCCCCCCC)n1` [S9N9 D4], the “Absolute DNA transfection efficiency” value was 18.0%.
In the case of `CCCCCCCSc1nc(NCCCCCC)nc(NCCCN2CCOCC2)n1` [S7N6 D8], the “Absolute DNA transfection efficiency” value is reported as 4.7%.
With `CCCCCCCCCSc1nc(NCCN(CC)CC)nc(SCCCCCCCC)n1` [S8S9 D7] the “Absolute DNA transfection efficiency” value was 29.3%.
`CCCCCCCCCCSc1nc(NCCCCCCC)nc(NCCCN(C)C)n1` [S10N7 D6] was tested, and the “Absolute DNA transfection efficiency” value was 6.2%.
For `CCCCCCCSc1nc(NCC2CCN(C)CC2)nc(SCCCCCC)n1` [S6S7 D10], the “Absolute DNA transfection efficiency” value was 21.6%.
`CCCCCCCCSc1nc(NCCCCCCC)nc(NCCCN2CCOCC2)n1` [S8N7 D8] was tested, and the “Absolute DNA transfection efficiency” value was 0.8%.
For `CCCCCCCCCCSc1nc(NCCCCCC)nc(NCCN(CC)CC)n1` [S10N6 D7], the “Absolute DNA transfection efficiency” value was 6.6%.
For `CCCCCCCCCCCCSc1nc(NCCCCCCC)nc(NCC2CCN(C)CC2)n1` [S12N7 D10], the “Absolute DNA transfection efficiency” value was 5.8%.
For `CCCCCCCCCCSc1nc(NCCN(CC)CC)nc(SCCCCCC)n1` [S6S10 D7], the “Absolute DNA transfection efficiency” value was 7.7%.
With `CCCCCCCCCCCCCCCCNc1nc(NCCCN2CCOCC2)nc(SCCCCCCCCCC)n1` [S10N16 D8] the “Absolute DNA transfection efficiency” value was 3.0%.
In the case of `CCCCCCCCCCCCNc1nc(NCCN2CCCC2)nc(SCCCCCCCCC)n1` [S9N12 D3], the “Absolute DNA transfection efficiency” value is reported as 47.3%.
In the case of `CCCCCCCCCCCCCCCCCCNc1nc(NCCN2CCN(C)CC2)nc(SCCCCCCCCCCCCCC)n1` [S14N18 D5], the “Absolute DNA transfection efficiency” value is reported as 0.6%.
In the case of `CCCCCCCCCCCCCCCCCCNc1nc(NCCN2CCN(C)CC2)nc(SCCCCCC)n1` [S6N18 D5], the “Absolute DNA transfection efficiency” value is reported as 15.4%.
In the case of `CCCCCCCCCCCCNc1nc(NCCCN2CCN(C)CC2)nc(SCCCCCCCCCCC)n1` [S11N12 D9], the “Absolute DNA transfection efficiency” value is reported as 5.9%.
With `CCCCCCCCCCCCCCCCSc1nc(NCCCCCCCCCCCCC)nc(NCC2CCN(C)CC2)n1` [S16N13 D10] the “Absolute DNA transfection efficiency” value was 2.0%.
With `CCCCCCCCCCCCCNc1nc(NCCN2CCCC2)nc(SCCCCCCCC)n1` [S8N13 D3] the “Absolute DNA transfection efficiency” value was 30.5%.
With `CCCCCCCCCCCCCNc1nc(NCCN(CC)CC)nc(SCCCCCCCCCCC)n1` [S11N13 D7] the “Absolute DNA transfection efficiency” value was 2.8%.
With `CCCCCCCCNc1nc(NCC2CCN(C)CC2)nc(SCCCCCC)n1` [S6N8 D10] the “Absolute DNA transfection efficiency” value was 0.4%.
With `CCCCCCCCCCCCCCCSc1nc(NCCN2CCCC2)nc(SCCCCCCC)n1` [S7S15 D3] the “Absolute DNA transfection efficiency” value was 4.6%.
In the case of `CCCCCCCCCCCCSc1nc(NCCCCCCCC)nc(NCCCN(C)C)n1` [S12N8 D6], the “Absolute DNA transfection efficiency” value is reported as 43.1%.
For `CCCCCCCCCCCCCCCCSc1nc(NCCN(C)C)nc(SCCCCCCC)n1` [S7S16 D1], the “Absolute DNA transfection efficiency” value was 10.0%.
In the case of `CCCCCCCCCCCNc1nc(NCCN2CCCC2)nc(SCCCCCCCCCCC)n1` [S11N11 D3], the “Absolute DNA transfection efficiency” value is reported as 23.4%.
`CCCCCCCCCCCCCCCCCCSc1nc(NCCCCCCCCC)nc(NCCN2CCOCC2)n1` [S18N9 D2] was tested, and the “Absolute DNA transfection efficiency” value was 3.4%.
`CCCCCCCCCCCCCCCCCCSc1nc(NCCCCCCCCCCC)nc(NCCN(C)C)n1` [S18N11 D1] was tested, and the “Absolute DNA transfection efficiency” value was 3.7%.
In the case of `CCCCCCCCCCCCCNc1nc(NCC2CCN(C)CC2)nc(SCCCCCCCCCCC)n1` [S11N13 D10], the “Absolute DNA transfection efficiency” value is reported as 3.8%.
`CCCCCCCCCCCCCCCCSc1nc(NCCCCCCCCC)nc(NCCN2CCOCC2)n1` [S16N9 D2] was tested, and the “Absolute DNA transfection efficiency” value was 7.4%.
For `CCCCCCCCCCCCCCCCSc1nc(NCCCN2CCN(C)CC2)nc(N(CCCCCCCCCCCC)CCCCCCCCCCCC)n1` [S16^2N12 D9], the “Absolute DNA transfection efficiency” value was 0.6%.
For `CCCCCCCCCCCCNc1nc(NCCN2CCN(C)CC2)nc(SCCCCCCCCCCC)n1` [S11N12 D5], the “Absolute DNA transfection efficiency” value was 14.1%.
In the case of `CCCCCCCCCCCCCCCCNc1nc(NCCN2CCN(C)CC2)nc(SCCCCCCCCCCC)n1` [S11N16 D5], the “Absolute DNA transfection efficiency” value is reported as 6.8%.
With `CCCCCCCCCCCCCNc1nc(NCC2CCN(C)CC2)nc(SCCCCCCCCC)n1` [S9N13 D10] the “Absolute DNA transfection efficiency” value was 29.4%.
In the case of `CCCCCCCCCCCCCCCCSc1nc(NCCCCCCCCCCC)nc(NCCCN2CCN(C)CC2)n1` [S16N11 D9], the “Absolute DNA transfection efficiency” value is reported as 9.6%.
In the case of `CCCCCCCCCCCCCCCSc1nc(NCCCCCCC)nc(NCCN(C)C)n1` [S15N7 D1], the “Absolute DNA transfection efficiency” value is reported as 18.2%.
`CCCCCCCCCCCCCCCSc1nc(NCCCCCCCCCCCCC)nc(NCC2CCN(C)CC2)n1` [S15N13 D10] was tested, and the “Absolute DNA transfection efficiency” value was 0.0%.
In the case of `CCCCCCCCNc1nc(NCCN2CCN(C)CC2)nc(SCCCCCCCC)n1` [S8N8 D5], the “Absolute DNA transfection efficiency” value is reported as 9.1%.
